Results on 14 molecules are retold here after patent US20260169011A1, “METHODS AND COMPOSITIONS FOR PROVIDING CUSTOMIZED NUTRITIONAL SUPPLEMENTS” (Vibrant Holdings LLC, priority 2023, published 2026).

Where two headings read alike, the source gives them in different places.

The conditions of data set [1]: cited from earlier work.
Data set [2] is described as follows: Extracellular (serum) nutrient levels by mass spectrometry (LC-MS, GC-MS, ICP-MS). The note with it: for Follow-up Nutrient Level / Actual Nutrient Value (ANV): Level: Serum, person; for Follow-up Nutrient Level: after customized blend; for Actual Nutrient Value (ANV): before customized blend.
Text: In some embodiments, the detection method assesses nutrients both in extracellular plasma and intracellular in RBC and WBC. In some embodiments, the detection method is mass spectroscopy-based. The extracellular and intracellular nutrient levels provide a comprehensive analysis of a subject's nutrient status, reflecting not only the intake levels but also the absorption levels into the cells.
In some aspects, the extracellular nutrient levels provide a snapshot of the status of nutrient baseline levels at a given time. It is a reflection of a person's diet over a narrow period of time. In contrast, the intracellular levels of nutrients provide information on the absorbed levels of nutrients, thus accounting for factors such as aging, lifestyle, chronic illness, medication, etc. that could interfere with absorption and can change the functional nutritional levels.
In some embodiments, the detection method is mass spectrometry. In some embodiments, the detection method is Liquid chromatography-mass spectrometry (LC-MS), Gas chromatography-mass spectrometry (GC-MS), or Inductively coupled plasma-mass-spectrometry (ICP-MS). In some embodiments, the detection method is Liquid chromatography-mass spectrometry (LC-MS). In some embodiments, the detection method is Gas chromatography-mass spectrometry (GC-MS). In some embodiments, the detection method is Inductively coupled plasma-mass-spectrometry (ICP-MS).
In some embodiments, the method provided herein evaluates nutrient levels, both in extracellular serum and inside (intracellular) red blood cells (RBC) and/or white blood cells (WBC). The extracellular nutrient levels provide a snapshot of the status of nutrient baseline levels at a given time. These extracellular nutrient levels are a reflection of a person's diet over a narrow period of time. In contrast, RBCs have a normal lifespan of 120 days, and thus intracellular assessments for nutrients in RBCs can provide information on nutrients over longer periods. Additionally, the intracellular levels of nutrients provide information on the absorbed levels of nutrients, thus accounting for factors such as, but not limited to, aging, lifestyle, chronic illness, and medication, that can interfere with absorption and can change the functional nutritional levels. Moreover, actual nutrient utilization occurs inside the cell owing to cellular metabolic processes. At times, nutrients could be present in serum, but poor cellular uptake may result in cells being devoid of these nutrients, thus giving rise to nutrient deficiencies owing to affected cellular activities. […] As a result, it is important to assess nutrients intracellularly in addition to extracellularly. Thus, the intracellular assessment provides information on cellular uptake and utilization of nutrients at the most fundamental level, enabling understanding of the root cause of nutrient deficiencies.
The subject individual fills out the health questionnaire (PHQ) which helps establishes factors such as symptoms, complications, comorbidities, and ongoing medications. The subject's blood is drawn and the extracellular serum and intracellular blood cells are tested for nutritional deficiencies via mass spectroscopy (e.g., Liquid chromatography-mass spectrometry (LC-MS), Gas chromatography-mass spectrometry (GC-MS), or Inductively coupled plasma-mass-spectrometry (ICP-MS)).
Data set [3] is described as follows: NutriPro test: serum, RBC and WBC nutrient values before and after ATB / customized blend. The conditions noted are these: for Pre-test biomarker level: before ATB; for Follow-up Nutrient Level / Actual Nutrient Value (ANV): person three; for Actual Nutrient Value (ANV): before customized blend. The data set is classed as in vivo, human. The source says:
The method for providing a nutritional supplement for a subject as disclosed herein is based on a comprehensive panel that assesses intracellular and extracellular levels of at least or up to 41 nutrients. […] Blood analysis using the method disclosed herein tests for nutrient levels in serum, red blood cells (RBCs), and white blood cells (WBCs). Additional genetic testing can assess patients' predispositions toward nutrient deficiencies. Based on the blood and genetic analysis results, a subsequent supplementation diet comprising supplements and food sources can be designed and implemented. The subject can be a human subject.
(§1) In some embodiments, the detection method is mass spectrometry.
The ‘NutriPro’ test is used to assess serum (extracellular), RBC, and WBC (intracellular) nutrient values along with genetic testing for any predispositions with could be affecting nutrient values in the body. If required, additional tests such as the gut zoomer, cardiovascular health, thyroid test, kidney function test, liver function test, etc, are carried out. FIG. 1 provides a schematic diagram of the process of the NutriPro test from the individual subject to the creation of customized nutritional blends.
The ATB is given to the individual for nutritional supplementation, and blood testing for nutrients in serum, RBC, and WBC is carried out after 3 or 6 months.
The assessed change is called the VAF.
After testing, the individual takes the ATB or the customized blend for the amount of time indicated.

Data set [4] can be described thus: Intracellular (RBC / WBC, cellular) nutrient levels by mass spectrometry. The class given is in vivo, human. The conditions noted are these: Level: Cells, person; for Follow-up Nutrient Level: after customized blend; for Actual Nutrient Value (ANV): before customized blend.
Text: as §1

Data set [5] can be described thus: Vibrant Absorption Factor (VAF): difference of post- and pre-supplementation nutrient values divided by ATB dosage.
Text: Improvement in nutrition can be determined by comparing the nutrient values in serum, RBC, and WBCs post-nutritional supplementation to the nutrient values in serum, RBC, and WBCs pre-nutritional supplementation. Based on the improvement, the change in the nutrient levels can be attributed to the per milligram dosage of the supplemented nutrients. The assessed nutritional change is the “Vibrant Absorption factor (VAF (see Equation (1) below). The VAF can be used to determine the subject's utilization of the supplemented nutrients, as determined by the difference in extracellular and intracellular nutrient values before and after supplementation. Based on the subject's utility or absorption of the nutrients, the dosage amount of the nutrient needed to be supplemented or increased to effect change of the subject's nutrient values into the optimum nutrient zone can be assessed. In various embodiments, the VAF is determined by administering a pre-determined formulation, referred to herein as the Absorption Testing Blend.
Next, the ATB is administered to the individual for a predefined period at step 320a, after which nutrient levels and the genetic nutrient profile are re-evaluated, to obtain the post-supplementation biomarker values at step 330.
This includes determining the VAF based on the difference between post- and pre-supplementation biomarker values, which is divided by the ATB dosage.
The assessed change is called the VAF. The VAF is used to understand how the individual's body is utilizing these nutrients, depending on the difference in extracellular and intracellular nutrient values before and after supplementation. Based on the body's utility or absorption of the nutrients, the amount of nutrients needed to be supplemented to alter the individual's nutrient values into the optimum nutrient zone is understood. The VAF calculations help in determining the appropriate dosages of nutrients required in the ‘customized blend.’
Setting [6] is: person one, serum, after customized blend.
The mark [7] stands for this setting: person two, serum, after customized blend.
[8] abbreviates: person one, cells, after customized blend.
The mark [9] stands for this setting: person two, cells, after customized blend.
[10] abbreviates: person two, level: Questionnaire.

Consider `[Ca]` [Calcium], for which the UTL is reported as 2,500 mg/day in data set [1] (Table 18, person one); 2,500 mg/day in data set [1] (Table 19, person two); 2,500 mg/day in data set [1] (upper tolerable limit). For the same molecule, the “Follow-up Nutrient Level” value in data set [2] stood at 6.2 mg/dL; in data set [4], 4.2 ng/MM WBC. For the same molecule, the “Actual Nutrient Value (ANV)” value stood at 3.1 mg/dL in data set [2] and 4.2 ng/MM WBC in data set [4]. Also, the Post-test biomarker level in data set [3] (person one, serum, after ATB) turned out to be 73000 ng/mL; in data set [3] (person two, serum, after ATB), 59000 ng/mL. Further, the figures for the “Follow-up Biomarker level” value in data set [3] (setting [6]) and in data set [3] (setting [7]) were 104000 ng/mL and 104200 ng/mL, respectively. In addition, the Pre-test biomarker level amounted to 65000 ng/mL in data set [3] (person one, serum) and 54000 ng/mL in data set [3] (person two, serum). Also, the VAF in data set [5] (person one, serum) was determined as 0.8; in data set [5] (person two, serum), 0.5.

With `[Cu]` [Copper], in data set [1] (Table 18, person one), the UTL is 10 mg/day. Also, in data set [2], the “Follow-up Nutrient Level” value came out at 0.05 mg/dL and the “Actual Nutrient Value (ANV)” value stood at 0.01 mg/dL. In addition, the Post-test biomarker level in data set [3] (person one, serum, after ATB) was 900 ng/mL. Further, the “Follow-up Biomarker level” value in data set [3] (setting [6]) was determined as 1690 ng/mL. This molecule gave a Pre-test biomarker level in data set [3] (person one, serum) of 200 ng/mL. The same molecule showed a VAF in data set [5] (person one, serum) of 8.75.

Molecule `CC/C=C\C/C=C\C/C=C\C/C=C\C/C=C\C/C=C\CCC(=O)O` [DHA] gave a Post-test biomarker level in data set [3] (person two, cells, after ATB, unit not given) of 1.9. Moreover, in data set [3] (person two, cells, after customized blend, unit not given), the “Follow-up Biomarker level” value is given as 9.4. In addition, in data set [3] (person two, cells, unit not given), the Pre-test biomarker level is 1.2. In data set [4] (unit not given), the “Follow-up Nutrient Level” value worked out at 0.9 and the “Actual Nutrient Value (ANV)” value is reported as 0.9. In data set [5] (person two, cells), this molecule yielded a VAF of 0.14.

`CC/C=C\C/C=C\C/C=C\C/C=C\C/C=C\CCCC(=O)O` [EPA] yielded a Post-test biomarker level in data set [3] (person one, cells, after ATB, unit not given) of 0.87. Further, the “Follow-up Biomarker level” value in data set [3] (person one, cells, after customized blend, unit not given) was found to be 2.1. The Pre-test biomarker level in data set [3] (person one, cells, unit not given) was determined as 0.1. Further, in data set [4] (unit not given), the “Follow-up Nutrient Level” value turned out to be 0.05 and the “Actual Nutrient Value (ANV)” value is reported as 0.05. Further, in data set [5] (person one, cells), the VAF was found to be 0.154.

As to `Nc1nc2ncc(CNc3ccc(C(=O)N[C@@H](CCC(=O)O)C(=O)O)cc3)nc2c(=O)[nH]1` [Folate], the “Actual Nutrient Value (ANV)” value in data set [2] came to 8e-05 mg/dL. In data set [2] (female, human, serum), this molecule registered a concentration at 3 months of 1.2 ng/mL. Also, the “Follow-up Biomarker level” value in data set [3] (female, human, in vivo) was found to be 14.5 ng/mL; in data set [3] (setting [6]) it was 14.3 ng/mL. For the same molecule, the Post-test biomarker level in data set [3] (female, human, in vivo) is 3.3 ng/mL; in data set [3] (person one, serum, after ATB), 2.8 ng/mL. Besides, the Pre-test biomarker level turned out to be 1.2 ng/mL in data set [3] (person one, serum) and 0.9 ng/mL in data set [3] (person two, serum). Also, the VAF is listed as 0.032 in data set [5] (person one, serum) and 0.048 in data set [5] (person two, serum).

Regarding `[Fe]` [Iron], the UTL in data set [1] (Table 20, person three) is given as 45 mg/day. Besides, the “Follow-up Nutrient Level” value in data set [2] is 0.019 mg/dL; in data set [3] (cells, after customized blend) it was 114100 µg/dL; in data set [3] (serum, after customized blend), 141 µg/dL; in data set [4], 76.5 mg/dL. The “Actual Nutrient Value (ANV)” value in data set [2] came to 0.014 mg/dL; in data set [3] (cells) it was 62000 µg/dL; in data set [3] (serum) it was 22 µg/dL; in data set [4], 76.5 mg/dL.

Consider `N[C@@H](CO)C(=O)O` [L-Serine], for which the UTL in data set [1] (upper tolerable limit) is 12000 mg/day. Further, in data set [2], the “Follow-up Nutrient Level” value turned out to be 51 nmol/mL and the “Actual Nutrient Value (ANV)” value stood at 44 nmol/mL.

For the molecule `[K+]` [Potassium], in data set [2], the “Follow-up Nutrient Level” value was found to be 3400 nmol/mL and the “Actual Nutrient Value (ANV)” value was 2800 nmol/mL.

With `CC(C)(CO)[C@@H](O)C(=O)NCCC(=O)O` [Vitamin B5], in data set [2], the “Follow-up Nutrient Level” value is 0.00144 mg/dL and the “Actual Nutrient Value (ANV)” value amounted to 0.00054 mg/dL. In data set [3] (person two, serum, after ATB), this molecule yielded a Post-test biomarker level of 23.5 ng/mL. The “Follow-up Biomarker level” value in data set [3] (setting [7]) was determined as 311 ng/mL. In addition, the Pre-test biomarker level in data set [3] (person two, serum) was 14.4 ng/mL. This molecule had a VAF in data set [5] (person two, serum) of 18.2.

Take `O=C1O[C@H]([C@@H](O)CO)C(O)=C1O` [Vitamin C]: in data set [2], the “Follow-up Nutrient Level” value was 0.23 mg/dL. Besides, in data set [2], the “Actual Nutrient Value (ANV)” value is 0.1 mg/dL. For the same molecule, the Post-test biomarker level in data set [3] (person one, cells, after ATB) came out at 1.1 pg/MM WBC; in data set [3] (person two, cells, after ATB), 1.1 pg/MM WBC. The results for the “Follow-up Biomarker level” value in data set [3] (setting [8]) and in data set [3] (setting [9]) were 9.2 pg/MM WBC and 8.3 pg/MM WBC, respectively. Also, the Pre-test biomarker level was 0.05 pg/MM WBC in data set [3] (person one, cells) and 0.1 pg/MM WBC in data set [3] (person two, cells). For the same molecule, the VAF in data set [5] (person one, cells) is given as 0.07; in data set [5] (person two, cells), 0.06667.

For the molecule `C=C1CC[C@H](O)C/C1=C/C=C1\CCC[C@]2(C)[C@@H]([C@H](C)CCCC(C)C)CC[C@@H]12` [Vitamin D3], the “Follow-up Nutrient Level” value in data set [2] amounted to 7.2e-05 mg/dL. Also, the “Actual Nutrient Value (ANV)” value in data set [2] amounted to 1e-05 mg/dL. The Post-test biomarker level in data set [3] (person one, cells, after ATB) is 18.9 pg/MM WBC; in data set [3] (person one, serum, after ATB) it was 2.3 ng/mL; in data set [3] (person two, cells, after ATB) it was 18.9 pg/MM WBC. Moreover, the “Follow-up Biomarker level” value was found to be 212 pg/MM WBC in data set [3] (setting [8]), 8.7 ng/mL in data set [3] (setting [6]) and 221 pg/MM WBC in data set [3] (setting [9]). For the same molecule, the Pre-test biomarker level in data set [3] (person one, cells) amounted to 12.2 pg/MM WBC; in data set [3] (person one, serum), 0.5 ng/mL; in data set [3] (person two, cells), 12.2 pg/MM WBC. Further, the VAF worked out at 0.067 in data set [5] (person one, cells); 0.018 in data set [5] (person one, serum); 0.067 in data set [5] (person two, cells).

As for `[Zn]` [Zinc], the UTL is 40 mg/day in data set [1] (Table 18, person one); 40 mg/day in data set [1] (Table 19, person two); 40 mg/day in data set [1] (Table 20, person three). Besides, the Post-test biomarker level in data set [3] (person one, cells, after ATB) was 4.8 ng/MM WBC; in data set [3] (person two, level: Questionnaire, after ATB) it was 1100 ng/mL. The “Follow-up Biomarker level” value in data set [3] (setting [8]) amounted to 14.1 ng/MM WBC; in data set [3] (person two, level: Questionnaire, after customized blend), 1470 ng/mL. The Pre-test biomarker level was found to be 2.8 ng/MM WBC in data set [3] (person one, cells) and 750 ng/mL in data set [3] (setting [10]). In data set [3] (serum, after customized blend), the “Follow-up Nutrient Level” value came to 155 µg/dL. The “Actual Nutrient Value (ANV)” value in data set [3] (serum) was 50 µg/dL. Further, the VAF in data set [5] (person one, cells) is 1.333; in data set [5] (setting [10]) it was 0.2333.

Turning to Vitamin A, the UTL in data set [1] (Table 19, person two) is reported as 10,000 IU/day; in data set [1] (Table 20, person three), 10,000 IU/day. Also, the “Follow-up Nutrient Level” value in data set [3] (cells, after customized blend) turned out to be 14.4 pg/MM WBC; in data set [3] (serum, after customized blend), 128 µg/dL. Also, the results for the “Actual Nutrient Value (ANV)” value in data set [3] (cells) and in data set [3] (serum) were 0.4 pg/MM WBC and 35 µg/dL, respectively. In addition, the Post-test biomarker level was 2.1 pg/MM WBC in data set [3] (person two, cells, after ATB) and 470 ng/mL in data set [3] (person two, serum, after ATB). Moreover, the “Follow-up Biomarker level” value in data set [3] (setting [9]) is 14.5 pg/MM WBC; in data set [3] (setting [7]) it was 1290 ng/mL. The Pre-test biomarker level in data set [3] (person two, cells) was found to be 0.2 pg/MM WBC; in data set [3] (person two, serum), 220 ng/mL. For the same molecule, the VAF came to 0.0019 in data set [5] (person two, cells) and 0.025 in data set [5] (person two, serum).

For Vitamin E, the “Follow-up Nutrient Level” value in data set [2] came out at 0.54 mg/dL. In addition, in data set [2], the “Actual Nutrient Value (ANV)” value stood at 0.42 mg/dL. Moreover, the Post-test biomarker level in data set [3] (person one, serum, after ATB) was 18200 ng/mL; in data set [3] (person two, serum, after ATB), 17800 ng/mL. In addition, the “Follow-up Biomarker level” value is 36500 ng/mL in data set [3] (setting [6]) and 35400 ng/mL in data set [3] (setting [7]). The Pre-test biomarker level in data set [3] (person one, serum) is 5500 ng/mL; in data set [3] (person two, serum) it was 3200 ng/mL. In addition, the VAF turned out to be 4.233 in data set [5] (person one, serum) and 4.867 in data set [5] (person two, serum).
